One test has as its target T1, OX2 receptor (Homo sapiens, UniProt O43614).
T1 construct: expressed in transfected cells; host or cells: unnamed cell line stably co-expressing apoaequorin and OX2 receptor, cultured in Ham's F12 with G418 and Zeocin
T1 sequence (O43614 1-444): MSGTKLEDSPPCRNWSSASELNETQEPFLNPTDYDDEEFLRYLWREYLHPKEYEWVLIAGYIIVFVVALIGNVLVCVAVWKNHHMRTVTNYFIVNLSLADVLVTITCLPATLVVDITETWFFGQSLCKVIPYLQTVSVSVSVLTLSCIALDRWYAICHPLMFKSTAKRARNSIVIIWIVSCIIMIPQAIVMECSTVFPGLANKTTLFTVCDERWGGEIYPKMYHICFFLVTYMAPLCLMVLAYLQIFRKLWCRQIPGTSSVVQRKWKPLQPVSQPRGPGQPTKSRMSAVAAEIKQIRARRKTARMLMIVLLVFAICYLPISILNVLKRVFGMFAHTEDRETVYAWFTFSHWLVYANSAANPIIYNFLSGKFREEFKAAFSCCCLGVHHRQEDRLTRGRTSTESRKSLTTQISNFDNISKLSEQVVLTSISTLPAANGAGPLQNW
Nature of the test: Functional assay for in vitro evaluation of OX2 receptor agonist activity (aequorin light emission, increase in intracellular calcium). Conditions: OX2R Agonism, Table 1; cell line co-expressing apoaequorin and OX2 receptor; related to the maximum effect induced by the orexin peptide. The test is classed as cell-based. The source says: The method of choice for the in vitro evaluation of OX2 receptor agonists is the measure of the increase in intracellular calcium induced by the activation of the receptor. OX2 receptor is stably expressed in a cell line co-expressing apoaequorin, a photoprotein which needs a hydrophobic prosthetic group, coelenterazine, to be converted to aequorin, the active enzyme. After calcium binding, aequorin oxidizes coelenterazine to coelenteramide with the production of CO2 and emission of light. The measurement of light emission after the addition of agonists reflects its ability to activate the receptor.
Cell line co-expressing apoaequorin and OX2 receptor were cultured as a monolayer at 37°C and 5% CO2 in complete Ham's F12 medium supplemented with FBS 10%, penicillin (100 IU/ml)-streptomycin (100 µg/ml), Geneticin (G418, 400 µg/ml) and Zeocin (250 µg/ml). Before starting the experiment, cells were incubated with a medium without antibiotics for 18 hours. After this incubation, the cells were detached from the culture plates and they were resuspended in DMEM-F12/0.1% BSA at a final concentration of 5x10^6 cells/ml. Cells were then incubated with 5 µM of coelenterazine at room temperature on a vertical rotating wheel for at least 3 hours. Following incubation with coelenterazine cells were diluted 1:10 with DMEM-F12/0.1% BSA and incubated in magnetic agitation for 1 hour.
Dose-response curves were performed for each compound. 50 µl of pre-loaded cells were injected over test compounds in a 96 wells plate. Results were expressed as the concentration of the compound where 50% of its maximal effect is observed (EC50), related to the maximum effect induced by the orexin peptide on the receptor. OX2R Agonism
As to `Cc1cc(C)c(OC2=C(Cl)C(=O)c3ccccc3C2=O)c(N)c1C` [Example 9, 2-(2-amino-3,4,6-trimethylphenoxy)-3-chloronaphthalene-1,4-dione], the EC50 worked out at 130 nM.
With `COc1ccc(N)c(OC2=C(Cl)C(=O)c3ccccc3C2=O)c1Cl` [Example 2, 2-(6-amino-2-chloro-3-methoxyphenoxy)-3-chloronaphthalene-1,4-dione], the half-maximal effective concentration (EC50) came out at 50 nM.
Consider `Cc1c(Cl)ccc(OC2=C(Cl)C(=O)c3ccccc3C2=O)c1N` [Example 3, 2-(2-amino-4-chloro-3-methylphenoxy)-3-chloronaphthalene-1,4-dione], for which the concentration giving a half-maximal response (EC50) turned out to be 110 nM.
Turning to `Cc1cc(C)c(N)c(OC2=C(Cl)C(=O)c3ccccc3C2=O)c1C` [Example 8, 2-(2-amino-3,5,6-trimethylphenoxy)-3-chloronaphthalene-1,4-dione], the EC50 amounted to 58 nM.
Consider `COc1ccc(N)c(OC2=C(Cl)C(=O)c3ccccc3C2=O)c1C` [Example 1, 2-(6-amino-3-methoxy-2-methylphenoxy)-3-chloronaphthalene-1,4-dione], for which the EC50 amounted to 28 nM.
The same measure, in the same setting: under `Cc1cc(Cl)cc(N)c1OC1=C(Cl)C(=O)c2ccccc2C1=O` [Example 5, 2-(2-amino-4-chloro-6-methylphenoxy)-3-chloronaphthalene-1,4-dione] stands 80 nM; under `Cc1cc(C)c(N)c(OC2=C(Cl)C(=O)c3ccccc3C2=O)c1` [Example 4, 2-(2-amino-3,5-dimethylphenoxy)-3-chloronaphthalene-1,4-dione], 60 nM; under `Cc1ccc(OC2=C(Cl)C(=O)c3ccccc3C2=O)c(N)c1C` [Example 7, 2-(2-amino-3,4-dimethylphenoxy)-3-chloronaphthalene-1,4-dione], 50 nM.
On to `Cc1cc(Br)cc(N)c1OC1=C(Cl)C(=O)c2ccccc2C1=O` [Example 6, 2-(2-amino-4-bromo-6-methylphenoxy)-3-chloronaphthalene-1,4-dione], for which the EC50 worked out at 90 nM.

The same test, now with this note: OX2R Agonism, Table 2, comparative examples (compounds described in PCT/EP2014/062349); same experimental methodology.
Turning to `CC(=O)c1ccc(OC2=C(Cl)C(=O)c3ccccc3C2=O)c(N)c1` [Example C7], the concentration for a half-maximal effect (EC50) is 4370 nM.
Turning to `Nc1cc(Cl)cc(Cl)c1OC1=C(Cl)C(=O)c2ccccc2C1=O` [Example C11], the EC50 was determined as 390 nM.
`Nc1ccccc1OC1=C(Cl)C(=O)c2ccccc2C1=O` [Example C1]: the EC50 was 516 nM.
Still for that read-out and setting: the same measure for `Nc1cc(Cl)ccc1OC1=C(Cl)C(=O)c2ccccc2C1=O` [Example C3]: 737 nM; for `Nc1ccc(F)cc1OC1=C(Cl)C(=O)c2ccccc2C1=O` [Example C9]: 390 nM; for `Cc1ccc(OC2=C(Cl)C(=O)c3ccccc3C2=O)c(N)c1` [Example C2]: 242 nM.
Consider `COC(=O)c1ccc(OC2=C(Cl)C(=O)c3ccccc3C2=O)c(N)c1` [Example C6], for which the EC50 is 4060 nM.
As for `Nc1cc(F)ccc1OC1=C(Cl)C(=O)c2ccccc2C1=O` [Example C5], the EC50 turned out to be 578 nM.
Same read-out and setting: the same measure for `Cc1cc(N)c(OC2=C(Cl)C(=O)c3ccccc3C2=O)cc1C` [Example C10]: 670 nM; for `Nc1ccc(Cl)cc1OC1=C(Cl)C(=O)c2ccccc2C1=O` [Example C4]: 747 nM; for `Cc1ccc(C)c(OC2=C(Cl)C(=O)c3ccccc3C2=O)c1N` [Example C12]: 150 nM.
For `Nc1cc(C(F)(F)F)ccc1OC1=C(Cl)C(=O)c2ccccc2C1=O` [Example C8], the EC50 was 700 nM.

What is called EC50 is the midpoint of the concentration-response curve.

These data come from EP3029024A1, “2-(2-aminophenoxy)-3-chloronaphthalene-1,4-dione compounds having orexin 2 receptor agonist activity” (Ferrer Internacional, S.A., priority 2014, dated 2016).
